In patent US6376692B1, “Zirconium alkoxytris (β-Diketonate), process for manufacturing the same, and liquid composition for formation of PZT film” (Kabushikikaisha Kojundokagaku Kenkyusho, priority 1999, dated 2002):
Where two headings read alike, the source gives them in different places.

Settings: room temperature

amount dissolved in 1 liter of the solvent (Butyl Acetate)	amount dissolved in 1 liter of the solvent (Hexane)	amount dissolved in 1 liter of the solvent (THF)	amount dissolved in 1 liter of the solvent (Toluene)	amount dissolved in 1 liter of the solvent (n-Butyl Ether)	Compound
460 grams in 1 liter of the solven	620 grams in 1 liter of the solven	980 grams in 1 liter of the solven	1100 grams in 1 liter of the solven	430 grams in 1 liter of the solven	CC(C)(C)C(=O)C=C([O-])C(C)(C)C.CC(C)(C)C(=O)C=C([O-])C(C)(C)C.CC(C)(C)C(=O)C=C([O-])C(C)(C)C.CC(C)[O-].[Zr+4] [Zr(OiPr)(dpm)3, zirconium isopropoxy tris(dipivaloylmethanate)]
180 grams in 1 liter of the solven	430 grams in 1 liter of the solven	1020 grams in 1 liter of the solven	290 grams in 1 liter of the solven	240 grams in 1 liter of the solven	CC(C)(C)C(=O)C=C(O)C(C)(C)C.CC(C)(C)C(=O)C=C(O)C(C)(C)C.CC(C)(C)C(=O)C=C(O)C(C)(C)C.CC(C)(C)C(=O)C=C(O)C(C)(C)C.[Zr] [Zr(dpm)4]
